Reference: US10105437B2, “Epitopes related to coeliac disease” (BTG International Limited, priority 2004, dated 2018)
Where no end group is shown, it is not given here.

test system: PBMC from HLA-DQ2+ coeliac subjects; assay: Interferon gamma ELISPOT, secalin 20mer first round library after rye challenge; format: cell-based, human; conditions: 20mers pre-treated with tTG; day 6 PBMC; 14 subjects
Description: Peptides were initially dissolved in aqueous acetonitrile (50%). Peptides in aqueous acetonitrile were transferred to sterile 96-well plates and diluted in sterile PBS with 1 mM calcium (250 mcg/ml) and then incubated with tTG (25 mcg/ml) (Sigma T5398) for 6 h 37° C. and then stored frozen (−20° C.) until use.
(§1) IFNγ ELISpot assays (Mabtech, Sweden) were performed in 96-well plates (MAIP S-45, Millipore) in which each well contained 25 mcl of peptide solution and 100 mcl of PBMC (2-8×10^5/well) in RPMI containing 10% heat inactivated human AB serum. After development and drying, IFNγ ELISpot plates were assessed using the MAIP automated ELISpot plate counter. Data was then analysed according to a novel algorithm (Expectation Maximization: EM) to define and quantify interferon-gamma responses to 9mer sequences contained within the peptide library (see FIG. 3 and below). 9mer peptides were then rationalised according to an algorithm that assumes redundancy in T-cell recognition, the “IterativeCluster” algorithm (see FIG. 4 and below), by allowing groups of amino acids with similar chemical properties at any one position in the 9mer, or for glutamate to replace glutamine at any position (assuming deamidation may have occurred).
Secalin and hordein 20mer first round peptide libraries were assessed 3 days after completing rye (bread, 100 g/d for 3 days) or barley (boiled, 100 g/d for 3 days) challenge (“day 6” PBMC interferon gamma ELISPOT responses). Although iterative analysis using 2nd and 3rd round peptide libraries to define epitopes has not yet been performed, the 20mers pre-treated with tTG found to induce “potent” responses shared substantial structural similarity to the bioactive peptides identified after wheat challenge. […] The dominant (>70% maximal response) 20mer after rye challenge was usually […] (SEQ ID NO: 1769) (8/14 subjects), or occasionally […] (SEQ ID NO: 1770) (4/14), […] (SEQ ID NO: 1771) (1/14), […] (SEQ ID NO: 1772) (1/14) and/or […] (SEQ ID NO: 1773) (1/14). Additional peptides noted for greater than 40% maximal response in at least 1 subject include: […]

**Q.** Which “subjects in whom 20mer was dominant (>70% maximal response) after rye challenge” value does the source give for “QPFPQPQQPTPIQPQQPFPQ (Description of Artificial Sequence: Synthetic gluten peptide) [rye secalin 20mer]” here?
**A.** 4/14

**Q.** “QQPQQLFPQTQQSSPQQPQQ (Description of Artificial Sequence: Synthetic gluten peptide) [rye secalin 20mer]” was tested. Which “subjects in whom 20mer was dominant (>70% maximal response) after rye challenge” value did it give?
**A.** 1/14

same assay, conditions: after rye challenge; 14 subjects

**Q.** How did the “number of subjects with > 70% maximal response” value turn out when “QQLPLQPQQPFPQPQQPIPQ (Description of Artificial Sequence: Synthetic gluten peptide) [rye secalin 20mer]” was run?
**A.** 2

**Q.** And the “subjects with greater than 40% maximal response” value?
**A.** 6/14

**Q.** Which results are given for “QQPFLLQPQQPFSQPQQPFL (Description of Artificial Sequence: Synthetic gluten peptide) [rye secalin 20mer]”?
**A.** number of subjects with > 70% maximal response: 1; subjects with greater than 40% maximal response: 1/14

**Q.** “QQPQQPFPLQPQQPVPQQPQ (Description of Artificial Sequence: Synthetic gluten peptide) [rye secalin 20mer]” was tested. Which “number of subjects with > 70% maximal response” value did it give?
**A.** 1

**Q.** And the “subjects with greater than 40% maximal response” value?
**A.** 3/14

**Q.** Which results are given for “QQPSIQLSLQQQLNPCKNVL (Description of Artificial Sequence: Synthetic gluten peptide) [rye secalin 20mer]”?
**A.** number of subjects with > 70% maximal response: 1; subjects with greater than 40% maximal response: 1/14

**Q.** How did the “number of subjects with > 70% maximal response” value turn out when “QTQQSIPQPQQPFPQPQQPF (Description of Artificial Sequence: Synthetic gluten peptide) [rye secalin 20mer]” was run?
**A.** 1

**Q.** And the “subjects with greater than 40% maximal response” value?
**A.** 3/14

**Q.** For “SIPQPQQPFPQPQQPFPQSQ (Description of Artificial Sequence: Synthetic gluten peptide) [rye secalin 20mer]”, which “number of subjects with > 70% maximal response” value is on record?
**A.** 1

**Q.** What about the “subjects with greater than 40% maximal response” value of the same substance?
**A.** 4/14

**Q.** Which “number of subjects with > 70% maximal response” value does the source give for “SPQQPQLPFPQPQQPFVVVV (Description of Artificial Sequence: Synthetic gluten peptide) [rye secalin 20mer]” here?
**A.** 1

**Q.** And the “subjects with greater than 40% maximal response” value?
**A.** 4/14

**Q.** What does the source list for “VGPSGQVSWPQQQPLPQPQQ (Description of Artificial Sequence: Synthetic gluten peptide) [rye secalin 20mer]”?
**A.** number of subjects with > 70% maximal response: 2; subjects with greater than 40% maximal response: 2/14

test system: PBMC from HLA-DQ2+ coeliac subjects; assay: Interferon gamma ELISPOT, third round wheat peptide library; format: cell-based, human; conditions: following deamidation by tTG; 14 subjects; wheat challenge
Description: as §1
The third round peptide library consisted of 74 peptides based upon structurally distinct sequences in the second round library found to induce at least 10% of the maximal response to any peptide in any subject. These peptides corresponded to wild-type (non-deamidated) sequences virtually identical to those used in the second round library. The distinct feature of this library was that it consisted of peptides with purity verified by HPLC as >80%, and with sequences confirmed by mass spectroscopy.
Interferon gamma ELSIPOT responses to the 3rd round library peptides following deamidation by tTG were compared in 14 subjects. Once again, sequences including the PQPQLPY motif (SEQ ID NO: 1937) were “dominant” in 9/14 subjects. However PFPQPQQPFPW (SEQ ID NO: 1894) stimulated >70% of maximal response in 1/14 subjects, PFPQQPQQPFPQ (SEQ ID NO: 1895) in 1/14, PQPFLPQLPYPQP (SEQ ID NO: 1896) in 1/14, QPFPQPQQPQQP (SEQ ID NO: 1897) in 4/14 (including 3 subjects in whom PQPQLPY peptides (SEQ ID NO: 1937) were not potent epitopes) SGQGVSQSQQQSQQQ (SEQ ID NO: 1898) in 2/14 (including one in which PQPQLPY peptides (SEQ ID NO: 1937) were not potent), QYEVIRSLVLRTLPNM (SEQ ID NO: 1899) and GLARSQMLQQSICHVG (SEQ ID NO: 1900) each in one (the same) subject in whom PQPQLPY peptides (SEQ ID NO: 1937) were not potent epitopes, RTTTSVPFGVGTGVGA (SEQ ID NO: 1901) in 1/14 subjects and AIHTVIHSIIMQQEQQ (SEQ ID NO: 1902) in 1/14 subjects.

**Q.** “AIHTVIHSIIMQQEQQ (Description of Artificial Sequence: Synthetic gluten peptide)” was tested. Which “subjects in whom peptide stimulated >70% of maximal response (dominant)” value did it give?
**A.** 1/14

**Q.** With “GLARSQMLQQSICHVG (Description of Artificial Sequence: Synthetic gluten peptide)” as the substance, how does the “subjects in whom peptide stimulated >70% of maximal response (dominant)” value read?
**A.** one

**Q.** For “PFPQPQQPFPW (Description of Artificial Sequence: Synthetic gluten peptide)”, which “subjects in whom peptide stimulated >70% of maximal response (dominant)” value is on record?
**A.** 1/14

**Q.** How did the “subjects in whom peptide stimulated >70% of maximal response (dominant)” value turn out when “PFPQQPQQPFPQ (Description of Artificial Sequence: Synthetic gluten peptide)” was run?
**A.** 1/14

**Q.** With “PQPFLPQLPYPQP (Description of Artificial Sequence: Synthetic gluten peptide)” as the substance, how does the “subjects in whom peptide stimulated >70% of maximal response (dominant)” value read?
**A.** 1/14

**Q.** “QPFPQPQQPQQP (Description of Artificial Sequence: Synthetic gluten peptide)” was tested. Which “subjects in whom peptide stimulated >70% of maximal response (dominant)” value did it give?
**A.** 4/14

**Q.** How did the “subjects in whom peptide stimulated >70% of maximal response (dominant)” value turn out when “QYEVIRSLVLRTLPNM (Description of Artificial Sequence: Synthetic gluten peptide)” was run?
**A.** one

**Q.** With “RTTTSVPFGVGTGVGA (Description of Artificial Sequence: Synthetic gluten peptide)” as the substance, how does the “subjects in whom peptide stimulated >70% of maximal response (dominant)” value read?
**A.** 1/14

**Q.** Which “subjects in whom peptide stimulated >70% of maximal response (dominant)” value does the source give for “SGQGVSQSQQQSQQQ (Description of Artificial Sequence: Synthetic gluten peptide)” here?
**A.** 2/14

test system: PBMC from HLA DQ8+DQ2- CD subjects; assay: Interferon gamma ELISPOT, second round gliadin library in HLA DQ8 subjects; format: cell-based, human; conditions: not given
Source text: PBMC from two subjects initially challenged were used to screen the first round “Melbourne” wheat gliadin 20mer library. The 20mer sequences identified using PBMC from these two HLA DQ8 CD subjects were dissected further by screening, in five HLA DQ8+DQ2− CD subjects including the two original subjects, a second round library based on reactive 20mers in the 1st round library. The 2nd round library consisted of screening grade overlapping 16mers, and 13mers predicted to correspond to tTG-mediated deamidation products of epitopes with the potential for deamidation of glutamine at position 1 and/or position 9 (consistent with the HLA DQ8 peptide binding motif). In addition, the 1400 glutenin (HMW and LMW) tTG-pretreated 20mers in the “Melbourne” wheat gluten library were also screened in these five subjects.

**Q.** How did the “effect of deamidation of specific glutamine residues on ELISPOT responses” value (from here on “effect”) turn out when “(QE)GSFQPSQ(QE): previously published HLA DQ8 epitope, van der Wal 1998 (XGSFQPSQX; not fully specified; printed as (QE)GSFQPSQ(QE)) [reference compound]” was run?
**A.** enhanced or permissive to specific glutamine residues being deamidated

**Q.** For “(QE)QPFP(QE)QP(QE): HLA DQ8 gliadin epitope motif, Q or E at marked positions (XQPFPXQPX; not fully specified; printed as (QE)QPFP(QE)QP(QE))”, which “effect” value is on record?
**A.** enhanced or permissive to specific glutamine residues being deamidated

**Q.** “(QE)QPFPLQP(QE): HLA DQ8 gliadin epitope motif, Q or E at marked positions (XQPFPLQPX; not fully specified; printed as (QE)QPFPLQP(QE))” was tested. Which “effect” value did it give?
**A.** enhanced or permissive to specific glutamine residues being deamidated

**Q.** For “(QE)QPIPVQP(QE): HLA DQ8 gliadin epitope motif, Q or E at marked positions (XQPIPVQPX; not fully specified; printed as (QE)QPIPVQP(QE))”, which “effect” value is on record?
**A.** enhanced or permissive to specific glutamine residues being deamidated

**Q.** With “(QE)QPQQPFP(QE): HLA DQ8 gliadin epitope motif, Q or E at marked positions (XQPQQPFPX; not fully specified; printed as (QE)QPQQPFP(QE))” as the substance, how does the “effect” value read?
**A.** enhanced or permissive to specific glutamine residues being deamidated

**Q.** How did the “effect” value turn out when “(QE)QPTPIQP(QE): HLA DQ8 gliadin epitope motif, Q or E at marked positions (XQPTPIQPX; not fully specified; printed as (QE)QPTPIQP(QE))” was run?
**A.** enhanced or permissive to specific glutamine residues being deamidated

same assay, conditions: VYIPPYCTIAPFGIFG and/or AMCNVYIPPYCAMAPF; five subjects

**Q.** How did the “subjects with dominant responses to one or both of these peptides” value turn out when “AMCNVYIPPYCAMAPF (Description of Artificial Sequence: Synthetic gluten peptide) [gliadin 16mer, HLA DQ8]” was run?
**A.** 4/5

**Q.** Which “subjects with dominant responses to one or both of these peptides” value does the source give for “VYIPPYCTIAPFGIFG (Description of Artificial Sequence: Synthetic gluten peptide) [gliadin 16mer, HLA DQ8]” here?
**A.** 4/5

same assay, conditions: five subjects; wheat gluten challenge

**Q.** For “AMCNVYIPPYCAMAPF (Description of Artificial Sequence: Synthetic gluten peptide) [gliadin 16mer, HLA DQ8]”, which “subjects with >70% response to maximal gliadin 16mer (dominant)” value is on record?
**A.** 3/5

**Q.** For “VYIPPYCTIAPFGIFG (Description of Artificial Sequence: Synthetic gluten peptide) [gliadin 16mer, HLA DQ8]”, which “subjects with >70% response to maximal gliadin 16mer (dominant)” value is on record?
**A.** 3/5
